Measurements published in ChEMBL document CHEMBL3085722, “Stereochemical assignment of the fungal metabolites pestalotiopsones D and E through enantiopure synthesis” (J Nat Prod, 2013).
≈ marks a conversion by molar mass, not a printed value.

How the values were obtained:
Type in all cases: functional, organism-based
[1] = system: Mycolicibacterium smegmatis; test: Antibacterial activity against Mycobacterium smegmatis after 18 hrs by turbidity assay
Escherichia coli = test: Antibacterial activity against Escherichia coli after 18 hrs by turbidity assay
Pseudomonas aeruginosa = test: Antibacterial activity against Pseudomonas aeruginosa after 18 hrs by turbidity assay
[2] = system: Staphylococcus epidermidis; test: Antibacterial activity against Staphylococcus epidermidis after 18 hrs by turbidity assay

Row | Structure (SMILES) | MIC [1] [µg/mL] | MIC (Escherichia coli) [µg/mL] | MIC (Pseudomonas aeruginosa) [µg/mL] | MIC [2] [µg/mL] | IC50 [1] [µg/mL] | IC50 (Escherichia coli) [µg/mL] | IC50 (Pseudomonas aeruginosa) [µg/mL] | IC50 [2] [µg/mL]
1 | COC(=O)Cc1cc(O)cc2oc(CCCCC[C@@H](C)O)cc(=O)c12 | > 500 | > 500 | > 500 | > 500 | – | – | – | –
2 | CCOC(=O)Cc1cc(O)cc2oc(CCCCC[C@@H](C)O)cc(=O)c12 | > 500 | > 500 | > 500 | > 500 | – | – | – | –
3 | COC(=O)Cc1cc(OC)cc2c1C(=O)CC(CCCCC[C@@H](C)OC(C)=O)O2 (mixture of isomers) | > 500 | > 500 | > 500 | > 500 | – | – | – | –
4 | COC(=O)Cc1cc(OC)cc2oc(CCCCC[C@H](C)OC(C)=O)cc(=O)c12 | > 500 | > 500 | > 500 | > 500 | > 500 | > 500 | 465 (≈ 1150 µM) | > 500
5 | COC(=O)Cc1cc(OC)cc2oc(CCCCC[C@@H](C)OC(C)=O)cc(=O)c12 | > 500 | > 500 | > 500 | > 500 | – | – | – | –
6 | NC[C@H]1O[C@H](O[C@H]2[C@H](O)[C@@H](O[C@H]3O[C@H](CO)[C@@H](O)[C@H](N)[C@H]3O)[C@H](N)C[C@@H]2N)[C@H](O)[C@@H](O)[C@@H]1O [KANAMYCIN] | – | – | – | – | < 1 | < 1 | 209 (≈ 431 µM) | 90 (≈ 186 µM)
7 | CCOC(=O)Cc1cc(O)cc2oc(CCCCC[C@H](C)O)cc(=O)c12 | > 500 | > 500 | > 500 | > 500 | 484 (≈ 1340 µM) | > 500 | 440 (≈ 1210 µM) | > 500
8 | COC(=O)Cc1cc(O)cc2oc(CCCCC[C@H](C)O)cc(=O)c12 | > 500 | > 500 | > 500 | > 500 | > 500 | > 500 | > 500 | > 500
9 | COC(=O)Cc1cc(OC)cc2c1C(=O)CC(CCCCC[C@H](C)OC(C)=O)O2 (mixture of isomers) | > 500 | > 500 | > 500 | > 500 | 492 | > 500 | 445 | > 500
